Data reported in ChEMBL document CHEMBL2046355 (Bioorg Med Chem Lett, 2012).
The source made the active and inactive calls. The calls are words filed in the database; no cut-off is given here.

Columns and labels:
[1] = target: T1, Solute carrier family 12 member 5 (Homo sapiens, UniProt Q9H2X9); assay: Antagonist activity at KCC2 expressed in human HEK293 cells assessed as decrease in Tl-stimulated fluorescence increase after 8 mins by fluorescence analysis; type: functional, cell-based
T1 sequence (Q9H2X9 whole entry): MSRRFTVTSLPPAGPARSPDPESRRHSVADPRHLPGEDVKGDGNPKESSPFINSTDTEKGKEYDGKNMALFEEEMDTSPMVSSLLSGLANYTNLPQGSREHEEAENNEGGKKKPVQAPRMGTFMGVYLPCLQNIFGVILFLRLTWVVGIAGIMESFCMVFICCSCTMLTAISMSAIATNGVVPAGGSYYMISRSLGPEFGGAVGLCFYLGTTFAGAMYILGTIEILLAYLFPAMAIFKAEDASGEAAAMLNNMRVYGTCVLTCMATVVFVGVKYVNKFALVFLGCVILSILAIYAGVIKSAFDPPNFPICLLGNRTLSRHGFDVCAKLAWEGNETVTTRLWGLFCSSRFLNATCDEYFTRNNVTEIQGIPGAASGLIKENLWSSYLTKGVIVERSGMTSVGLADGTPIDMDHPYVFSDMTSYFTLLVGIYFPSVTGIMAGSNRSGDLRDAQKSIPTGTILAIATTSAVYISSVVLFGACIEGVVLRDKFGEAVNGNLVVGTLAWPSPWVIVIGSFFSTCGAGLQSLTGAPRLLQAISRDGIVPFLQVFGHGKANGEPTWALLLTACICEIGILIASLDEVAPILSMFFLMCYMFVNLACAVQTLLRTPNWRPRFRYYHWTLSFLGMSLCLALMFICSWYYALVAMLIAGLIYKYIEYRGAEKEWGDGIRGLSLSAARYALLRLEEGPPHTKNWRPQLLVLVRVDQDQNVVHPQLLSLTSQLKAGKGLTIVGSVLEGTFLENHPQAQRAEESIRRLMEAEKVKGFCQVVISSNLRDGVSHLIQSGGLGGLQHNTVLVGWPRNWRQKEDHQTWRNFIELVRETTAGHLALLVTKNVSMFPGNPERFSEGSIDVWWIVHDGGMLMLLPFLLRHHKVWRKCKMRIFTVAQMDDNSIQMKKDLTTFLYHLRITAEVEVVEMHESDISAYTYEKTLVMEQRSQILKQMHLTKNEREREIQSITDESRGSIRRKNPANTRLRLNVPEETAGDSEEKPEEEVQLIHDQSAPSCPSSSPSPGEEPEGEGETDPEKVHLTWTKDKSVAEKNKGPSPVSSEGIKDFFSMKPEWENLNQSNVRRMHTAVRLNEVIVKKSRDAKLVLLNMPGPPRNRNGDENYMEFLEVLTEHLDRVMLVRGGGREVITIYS

[2] = target: T2, Solute carrier family 12 member 5 (Homo sapiens) (UniProt Q9H2X9); assay: Antagonist activity at KCC2 expressed in human HEK293 cells assessed as decrease in Tl-stimulated fluorescence increase at 2 uM after 8 mins by fluorescence analysis; type: functional, cell-based
T2 sequence (whole entry): T1 sequence (Q9H2X9 whole entry)

[3] = target: T3, Solute carrier family 12 member 2 (Homo sapiens, UniProt P55011); assay: Antagonist activity at […] expressed in human HEK293 cells assessed as [86Rb] uptake after 30 mins by scintillation counting; type: functional, cell-based
T3 sequence (P55011 whole entry): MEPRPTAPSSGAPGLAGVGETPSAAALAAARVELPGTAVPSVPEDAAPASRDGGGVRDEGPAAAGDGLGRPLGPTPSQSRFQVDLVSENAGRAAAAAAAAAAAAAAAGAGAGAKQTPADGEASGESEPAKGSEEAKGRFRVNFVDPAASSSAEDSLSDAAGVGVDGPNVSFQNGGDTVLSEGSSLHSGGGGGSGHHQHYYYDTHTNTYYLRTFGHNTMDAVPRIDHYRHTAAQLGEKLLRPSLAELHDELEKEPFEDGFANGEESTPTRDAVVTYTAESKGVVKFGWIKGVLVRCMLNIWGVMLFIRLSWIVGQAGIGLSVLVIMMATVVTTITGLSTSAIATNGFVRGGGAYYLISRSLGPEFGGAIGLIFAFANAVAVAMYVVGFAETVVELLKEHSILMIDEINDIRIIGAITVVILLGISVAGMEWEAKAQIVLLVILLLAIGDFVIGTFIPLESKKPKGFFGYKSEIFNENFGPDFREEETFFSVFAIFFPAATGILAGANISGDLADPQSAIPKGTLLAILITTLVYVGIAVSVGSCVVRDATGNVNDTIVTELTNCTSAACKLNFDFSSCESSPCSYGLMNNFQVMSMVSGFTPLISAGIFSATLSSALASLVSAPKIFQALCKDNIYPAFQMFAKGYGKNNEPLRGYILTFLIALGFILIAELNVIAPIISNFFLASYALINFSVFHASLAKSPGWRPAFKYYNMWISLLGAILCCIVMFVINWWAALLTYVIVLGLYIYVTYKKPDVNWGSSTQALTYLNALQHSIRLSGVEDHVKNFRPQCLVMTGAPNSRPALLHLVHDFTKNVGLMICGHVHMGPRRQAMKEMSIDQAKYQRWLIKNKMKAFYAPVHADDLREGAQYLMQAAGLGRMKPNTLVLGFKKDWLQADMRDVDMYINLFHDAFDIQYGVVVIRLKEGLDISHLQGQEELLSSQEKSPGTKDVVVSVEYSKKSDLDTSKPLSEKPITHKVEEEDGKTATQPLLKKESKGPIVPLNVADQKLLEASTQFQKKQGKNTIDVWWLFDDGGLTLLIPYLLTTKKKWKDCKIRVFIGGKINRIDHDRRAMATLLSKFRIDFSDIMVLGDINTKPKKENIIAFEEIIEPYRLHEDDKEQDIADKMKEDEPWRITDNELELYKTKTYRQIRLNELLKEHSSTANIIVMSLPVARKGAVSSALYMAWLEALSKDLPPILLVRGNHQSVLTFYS

[4] = Inhibition of L-type calcium channel at 10 uM
hERG (KCNH2) = hERG (KCNH2) (Homo sapiens, UniProt Q12809); assay: Inhibition of human Erg at 10 uM
Sequence of hERG (KCNH2) (Q12809 whole entry): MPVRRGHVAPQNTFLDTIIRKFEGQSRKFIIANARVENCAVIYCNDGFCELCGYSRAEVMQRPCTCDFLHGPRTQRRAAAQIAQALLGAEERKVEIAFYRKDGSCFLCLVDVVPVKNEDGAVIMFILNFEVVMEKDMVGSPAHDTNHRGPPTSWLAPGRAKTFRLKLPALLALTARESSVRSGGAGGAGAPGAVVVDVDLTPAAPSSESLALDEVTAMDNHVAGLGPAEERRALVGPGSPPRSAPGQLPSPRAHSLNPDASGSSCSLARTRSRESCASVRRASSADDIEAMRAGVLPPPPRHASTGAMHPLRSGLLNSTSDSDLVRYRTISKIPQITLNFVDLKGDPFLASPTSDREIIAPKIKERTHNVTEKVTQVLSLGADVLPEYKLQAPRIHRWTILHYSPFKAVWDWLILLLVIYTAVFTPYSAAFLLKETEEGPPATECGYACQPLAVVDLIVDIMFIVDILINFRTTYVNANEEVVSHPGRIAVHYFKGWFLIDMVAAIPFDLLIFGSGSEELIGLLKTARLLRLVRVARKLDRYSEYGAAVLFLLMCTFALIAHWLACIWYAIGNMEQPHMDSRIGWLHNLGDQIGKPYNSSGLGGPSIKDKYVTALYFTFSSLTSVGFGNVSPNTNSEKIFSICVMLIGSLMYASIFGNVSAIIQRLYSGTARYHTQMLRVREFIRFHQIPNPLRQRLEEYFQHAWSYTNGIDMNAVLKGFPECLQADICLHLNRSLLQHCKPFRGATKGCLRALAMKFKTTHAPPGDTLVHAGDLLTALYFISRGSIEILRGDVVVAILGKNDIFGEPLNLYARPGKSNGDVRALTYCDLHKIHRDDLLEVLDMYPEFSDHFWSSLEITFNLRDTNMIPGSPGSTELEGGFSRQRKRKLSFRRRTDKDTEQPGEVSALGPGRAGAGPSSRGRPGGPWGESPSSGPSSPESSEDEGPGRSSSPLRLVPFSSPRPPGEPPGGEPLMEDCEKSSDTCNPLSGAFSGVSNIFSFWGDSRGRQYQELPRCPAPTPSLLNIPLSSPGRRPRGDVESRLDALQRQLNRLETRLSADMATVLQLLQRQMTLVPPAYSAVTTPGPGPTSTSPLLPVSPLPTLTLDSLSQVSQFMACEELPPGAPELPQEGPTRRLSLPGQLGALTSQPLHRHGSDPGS

[5] = target: T4, Solute carrier family 12 member 2 (Homo sapiens) (UniProt P55011); assay: Antagonist activity at […] expressed in human HEK293 cells assessed as [86Rb] uptake at 50 uM after 30 mins by scintillation counting; type: functional, cell-based; set-up: scale not given: the % may be the effect or the level left
T4 sequence (whole entry): T3 sequence (P55011 whole entry)

Cytochrome P450 3A4 = Cytochrome P450 3A4 (Homo sapiens, UniProt P08684); assay: Inhibition of CYP3A4 in human liver microsomes; type: ADME, Microsome
Sequence of Cytochrome P450 3A4 (P08684 whole entry): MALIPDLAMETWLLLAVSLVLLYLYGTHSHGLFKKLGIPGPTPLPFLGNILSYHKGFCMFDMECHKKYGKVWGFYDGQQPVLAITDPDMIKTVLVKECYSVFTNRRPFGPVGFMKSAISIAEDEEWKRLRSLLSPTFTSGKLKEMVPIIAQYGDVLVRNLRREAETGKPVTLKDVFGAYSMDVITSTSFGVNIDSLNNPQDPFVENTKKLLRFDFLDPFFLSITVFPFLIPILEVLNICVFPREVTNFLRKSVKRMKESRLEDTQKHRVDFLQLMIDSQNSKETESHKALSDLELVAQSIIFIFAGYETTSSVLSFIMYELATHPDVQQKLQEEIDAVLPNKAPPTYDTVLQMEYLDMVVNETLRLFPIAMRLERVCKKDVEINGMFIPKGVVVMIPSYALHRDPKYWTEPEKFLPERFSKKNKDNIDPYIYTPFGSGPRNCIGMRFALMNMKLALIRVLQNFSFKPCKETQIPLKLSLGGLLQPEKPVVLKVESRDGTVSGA

[6] = Clearance in rat at 1 mg/kg, iv; type: ADME, organism-based; set-up: dose 1 mg/kg, route intravenous; settings: in vivo
[7] = Volume of distribution at steady state in rat at 1 mg/kg, iv; type: ADME, organism-based; set-up: dose 1 mg/kg, route intravenous; settings: in vivo, read-out: Vdss
[8] = target: T2, Solute carrier family 12 member 5 (Homo sapiens); assay: Antagonist activity at KCC2 expressed in human HEK293 cells assessed as [86Rb] uptake after 30 mins by scintillation counting; type: functional, cell-based
Plasma [9] = assay: Fraction unbound in human plasma; type: ADME, cell-free
Cytochrome P450 2C9 = Cytochrome P450 2C9 (Homo sapiens, UniProt P11712); assay: Inhibition of CYP2C9 in human liver microsomes; type: ADME, Microsome
Sequence of Cytochrome P450 2C9 (P11712 whole entry): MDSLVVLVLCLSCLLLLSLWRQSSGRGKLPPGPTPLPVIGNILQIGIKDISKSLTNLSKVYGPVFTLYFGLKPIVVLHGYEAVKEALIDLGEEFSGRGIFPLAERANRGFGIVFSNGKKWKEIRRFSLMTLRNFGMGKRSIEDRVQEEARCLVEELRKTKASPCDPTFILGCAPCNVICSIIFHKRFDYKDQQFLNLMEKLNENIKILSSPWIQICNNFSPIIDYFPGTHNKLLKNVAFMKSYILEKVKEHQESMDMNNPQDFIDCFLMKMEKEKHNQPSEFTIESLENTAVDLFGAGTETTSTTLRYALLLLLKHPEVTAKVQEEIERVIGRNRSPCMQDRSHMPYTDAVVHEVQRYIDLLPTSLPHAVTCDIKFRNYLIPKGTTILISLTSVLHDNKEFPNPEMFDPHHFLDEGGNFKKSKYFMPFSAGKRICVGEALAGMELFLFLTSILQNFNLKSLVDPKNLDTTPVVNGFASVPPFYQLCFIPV

Plasma [10] = assay: Fraction unbound in rat plasma; type: ADME, cell-free
Cytochrome P450 1A2 = target: T5, Cytochrome P450 1A2 (Homo sapiens, UniProt P05177); assay: Inhibition of CYP1A2 in human liver microsomes; type: ADME, Microsome
T5 sequence (P05177 whole entry): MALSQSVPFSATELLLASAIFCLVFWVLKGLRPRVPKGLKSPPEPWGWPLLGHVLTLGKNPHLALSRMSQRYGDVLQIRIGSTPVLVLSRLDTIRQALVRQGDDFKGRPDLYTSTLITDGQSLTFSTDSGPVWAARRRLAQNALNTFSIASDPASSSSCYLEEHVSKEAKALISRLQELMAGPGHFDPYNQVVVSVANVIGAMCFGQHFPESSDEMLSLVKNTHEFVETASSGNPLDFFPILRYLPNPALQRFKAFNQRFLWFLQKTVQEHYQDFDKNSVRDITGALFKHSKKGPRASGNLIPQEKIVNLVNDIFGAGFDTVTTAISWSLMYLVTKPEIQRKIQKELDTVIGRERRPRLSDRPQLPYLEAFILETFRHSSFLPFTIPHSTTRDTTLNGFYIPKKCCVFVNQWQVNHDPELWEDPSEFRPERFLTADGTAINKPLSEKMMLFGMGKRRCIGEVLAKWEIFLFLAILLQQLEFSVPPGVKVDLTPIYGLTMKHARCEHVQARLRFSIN

Cytochrome P450 2D6 = Cytochrome P450 2D6 (Homo sapiens, UniProt P10635); assay: Inhibition of CYP2D6 in human liver microsomes; type: ADME, Microsome
Sequence of Cytochrome P450 2D6 (P10635 whole entry): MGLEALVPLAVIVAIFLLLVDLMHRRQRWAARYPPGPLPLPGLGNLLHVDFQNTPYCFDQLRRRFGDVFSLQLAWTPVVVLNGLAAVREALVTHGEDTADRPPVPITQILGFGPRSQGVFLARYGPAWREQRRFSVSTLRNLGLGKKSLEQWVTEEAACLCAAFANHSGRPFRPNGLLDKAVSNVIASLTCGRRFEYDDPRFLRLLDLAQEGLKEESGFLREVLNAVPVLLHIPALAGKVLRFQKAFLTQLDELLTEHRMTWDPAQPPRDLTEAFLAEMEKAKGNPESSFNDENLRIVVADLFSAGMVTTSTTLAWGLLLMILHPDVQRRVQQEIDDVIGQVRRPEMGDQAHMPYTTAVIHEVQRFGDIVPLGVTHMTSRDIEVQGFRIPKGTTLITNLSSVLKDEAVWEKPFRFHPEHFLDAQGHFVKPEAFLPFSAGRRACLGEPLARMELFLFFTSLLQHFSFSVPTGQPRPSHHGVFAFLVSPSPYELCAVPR

[11] = Half life in rat at 1 mg/kg, iv; type: ADME, organism-based; set-up: dose 1 mg/kg, route intravenous; settings: in vivo
[12] = Metabolic stability of the compound in rat plasma assessed as compound remaining after 1 hr; type: ADME, cell-free; settings: read-out: Stability

For `Cc1csc(N(C(=O)CSc2ccc(-c3ccccc3)nn2)C2CCC2)n1`, the IC50 [1] was 177 nM.
Molecule `CCN(C(=O)C(C)Sc1ccc(-c2ccccc2)nn1)c1nc(C)cs1` (racemic) has an inhibition [2] of 57%.
For `CCC(Sc1ccc(-c2ccccc2)nn1)C(=O)N(C)c1nc(C)cs1` (racemic), the inhibition [2] was 27%.
Work on `Cc1csc(NC(=O)CSc2ccc(-c3ccccc3)nn2)n1` yielded an IC50 [3] greater than 50000 nM, an IC50 [1] of 568 nM and an inhibition [4] greater than 50%. The inhibition at 10 µM (hERG (KCNH2)) was greater than 50%.
`O=C(Cn1cnc2c(nnn2Cc2ccccc2)c1=O)c1ccc(Cl)cc1` showed an IC50 [1] of 1200 nM and an Activity [5] of 40%.
`Cc1csc(N(C)C(=O)CSc2ccc(-c3ccccc3)nn2)n1` gave an IC50 [3] greater than 50000 nM, an IC50 [1] of 537 nM and an IC50 (Cytochrome P450 3A4) greater than 30000 nM. The clearance [6] was 185 mL/min/kg, the Vd [7] was 5 L/kg and the Activity [8] was “Active”. For the same molecule, the Fu (Plasma [9]) was 2%, the IC50 (Cytochrome P450 2C9) was greater than 30000 nM and the Fu (Plasma [10]) was 1%. For the same molecule, the inhibition [2] was 82%, the IC50 (Cytochrome P450 1A2) was greater than 30000 nM and the IC50 (Cytochrome P450 2D6) was 24000 nM. For the same molecule, the half-life [11] was 26 min.
Molecule `Cc1csc(N(C(=O)CSc2ccc(-c3ccccc3)nn2)C2CCCC2)n1` has an IC50 [1] of 1060 nM.
Molecule `Cc1csc(N(C)C(=O)CSc2ccc(-c3ccccc3)cn2)n1` has an IC50 [1] of 2900 nM.
For `Cc1csc(N(C(=O)CSc2ccc(-c3ccccc3)nn2)C2CC2)n1`, the IC50 [1] was 61 nM, the clearance [6] was 57 mL/min/kg and the Vd [7] was 0.4 L/kg. For the same molecule, the Activity [8] was “Active”, the IC50 (Cytochrome P450 2C9) was greater than 30000 nM and the remaining at 1 h [12] was 6%. For the same molecule, the IC50 (Cytochrome P450 1A2) was 20000 nM, the IC50 (Cytochrome P450 2D6) was greater than 30000 nM and the half-life [11] was 9 min.
For `CCC(Sc1ccc(-c2ccccc2)nn1)C(=O)N(CC)c1nc(C)cs1` (racemic), the inhibition [2] was 45%.
`CCC(Sc1ccc(-c2ccccc2)nn1)C(=O)N(c1nc(C)cs1)C1CC1` (single isomer, unassigned; (-)) gave an inhibition [2] of 40%.
Work on `CCC(Sc1ccc(-c2ccccc2)nn1)C(=O)N(c1nc(C)cs1)C1CC1` (racemic) [listing 1 of 2 here] yielded an IC50 [1] of 756 nM.
`CCC(Sc1ccc(-c2ccccc2)nn1)C(=O)N(c1nc(C)cs1)C1CC1` (racemic) [listing 2 of 2 here] showed an inhibition [2] of 84%.
Work on `CCC(Sc1ccc(-c2ccccc2)nn1)C(=O)N(c1nc(C)cs1)C1CC1` (single isomer, unassigned; (+)) yielded an IC50 [1] of 385 nM.
In the case of `Cc1csc(N(C)C(=O)C(C)Sc2ccc(-c3ccccc3)nn2)n1` (racemic), the inhibition [2] is reported as 46%.
Molecule `Cc1csc(NC(=O)CSc2ccc(-c3ccccc3)cn2)n1` has an IC50 [1] of 6900 nM.
